Each structure is given as a SMILES string.

These results are taken from patent US20080146616A1, “Indoles Useful in the Treatment of Inflammation” (priority 2004, published 2008).

The test has as its target T1, human mPGES-1 (Homo sapiens, UniProt O14684).
T1 construct: made in house; host or cells: E. coli (membrane fraction)
T1 sequence (O14684 1-152): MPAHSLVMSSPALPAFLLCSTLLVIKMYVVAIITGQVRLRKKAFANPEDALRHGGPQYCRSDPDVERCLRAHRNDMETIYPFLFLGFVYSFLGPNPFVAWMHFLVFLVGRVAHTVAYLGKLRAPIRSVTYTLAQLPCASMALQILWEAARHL
As to the kind of experiment: mPGES-1 inhibition assay (conversion of PGH2 to PGE2, HPLC analysis). The format is biochemical. The settings on record: human mPGES-1 expressed in E. coli, membrane fraction; 25 min preincubation, PGH2 substrate 60 s, room temperature; read-out: concentration at which 50% inhibition of mPGES-1 was observed. Here is the method: In the assay human in PGES-1 catalyses the reaction where the substrate PGH2 is converted to PGE2. mPGES-1 is expressed in E. Coli and the membrane fraction is dissolved in 20mM NaPi-buffer pH 8.0 and stored at −80° C. In the assay human mPGES-1 is dissolved in 0.1 M KPi-buffer pH 7.35 with 2.5 mM glutathione. The stop solution consists of H2O/MeCN (7/3), containing FeCl2 (25 mM) and HCl (0.15 M). The assay is performed at room temperature in 96-well plates. Analysis of the amount of PGE2 is performed with reversed phase HPLC (Waters 2795 equipped with a 3.9×150 mm C18 column). The mobile phase consists of H2O/MeCN (7/3), containing TFA (0.056%), and absorbance is measured at […] with a Waters 2487 UV-detector.
The following is added chronologically to each well: • 1. 100 μL human mPGES-1 in KPi-buffer with glutathione. Total protein concentration: 0.02 mg/mL. • 2. […] inhibitor in DMSO. Incubation of the plate at room temperature for 25 minutes. • 3. 4 μL of a […] PGH2 solution. Incubation of the plate at room temperature for 60 seconds. • 4. 100 μL stop solution. • 180 μL per sample is analyzed with HPLC.
In the case of `CC(C)Oc1ccc(-c2c(C(=O)O)n(-c3cccc(OC(C)C)c3)c3ccc(-c4ccc(C(C)(C)C)cc4)cc23)cc1` [Example 2, 5-(4-tert-Butylphenyl)-1-(3-isopropoxyphenyl)-3-(4-isopropoxyphenyl)-indole-2-carboxylic acid], the IC50 stood at 350 nM. Consider `CC(C)Oc1ccc(-c2c(C(=O)O)n(-c3ccc(N(C)C)cc3)c3ccc(-c4ccc(C(C)(C)C)cc4)cc23)cc1` [Example 5, 5-(4-tert-Butylphenyl)-1-(4-(dimethylamino)phenyl)-3-(4-isopropoxyphenyl)indole-2-carboxylic acid], for which the IC50 worked out at 210 nM. Consider `CC(C)Nc1ccc(-n2c(C(=O)O)c(-c3ccc(OC(C)C)cc3)c3cc(-c4ccc(C(C)(C)C)cc4)ccc32)cc1` [Example 6, 5-(4-tert-Butylphenyl)-3-(4-isopropoxyphenyl)-1-(4-(isopropylamino)-phenyl)indole-2-carboxylic acid], for which the IC50 was 70 nM. The result for `CC(C)Oc1ccc(-n2c(C(=O)O)c(-c3cccnc3)c3cc(-c4ccc(C(F)(F)F)cc4)ccc32)cn1` [Example 11, 1-(6-Isopropoxypyrid-3-yl)-3-(pyrid-3-yl)-5-(4-(trifluoromethyl)phenyl)-indole-2-carboxylic acid] reads 1800 nM; that for `CC(C)Oc1ccc(-c2c(C(=O)O)n(-c3cccnc3)c3ccc(-c4ccc(C(C)(C)C)cc4)cc23)cc1` [Example 13, 5-(4-tert-Butylphenyl)-3-(4-isopropoxyphenyl)-1-pyrid-3-yl-1H-indole-2-carboxylic acid], 950 nM.
